The numbers were not newly measured in patent publication US11033509B2 (BIOGEN MA INC., priority 2016, dated 2021), which cites them from elsewhere.

Where a name gives a salt, the structure may show the parent alone.

For the data set the following is noted: DMF absorbed in vivo and converted to MMF.

With `COC(=O)/C=C/C(=O)O` [MMF, monomethyl fumarate], the “half-life of MMF” value is “approximately 1 hour”.
